Laboratory results: US20080090278A1, “METHOD FOR ENHANCING STABILITY OF A COMPOSITION COMPRISING SOLUBLE GLUCOSE DEHYDROGENASE (GDH)” (TOYO BOSEKI KABUSHIKI KAISHA, priority 2006, published 2008)

What was measured:
Format in all cases: physicochemical
[1] = system: recombinant FAD-GDH (rAT-FAD-GDH) derived from Aspergillus terreus; assay: Thermal stabilization effect of stabilizing agents on rAT-FAD-GDH in solution (Example 9); settings: for Residual activity ratio (%) / GLD activity value (U/ml) 50° C., 15 min: Table 10, buffer 50 mM K-PB, stabilizer at each final concentration described in Table 1; for Residual activity ratio (%): 50° C., 15 min versus 4° C.; for thermal stabilization effect on FAD-GDH (in words): rAT-FAD-GDH, 50° C. for 15 minutes, Example 9
Method: (§1) The reaction reagent (3 mL) is preliminarily heated at 37° C. for 5 minutes. The GDH solution (0.1 mL) is added and gently mixed, subsequently the change of absorbance at 600 nm is recorded for 5 minutes using the spectrophotometer controlled to 37° C. using water as the control, and the change of absorbance per one minute (ΔODTEST) is calculated from the linear portion of the record. The solvent in which GDH will be dissolved in place of the blinded GDH solution is added to the reagent mixture, and the change of absorbance (ΔODBLANK) per one minute is measured. The GDH activity is calculated from these values according to the following formula. One unit (U) in the GDH activity is defined as the amount of the enzyme which reduces […] DCPIP for one minute in the presence of 200 mM D-glucose.
Two tubes in which each stabilizing agent described in Table 1 had been added at each final concentration to 0.9 mL of this enzyme solution to make the total volume 1.0 mL were prepared.
(§2) In two tubes, one tube was stored at 4° C. and another tube was treated at 50° C. for 15 minutes. Then, the FAD-GDH activity in each tube was measured. The enzyme activity in the tube stored at 4° C. was made 100, and comparing with it, the activity value after being treated at 50° C. for 15 minutes was calculated as the residual activity ratio (%).

[2] = system: recombinant FAD-GDH (rAO-FAD-GDH) derived from Aspergillus oryzae; assay: Thermal stabilization effect of stabilizing agents on rAO-FAD-GDH in solution (Examples 3-6); settings: for thermal stabilization effect on FAD-GDH (in words): 50° C. for 15 minutes, Example 3; for GDH Residual activity ratio (%) after treatment at 50° C., 15 min: final concentration BSA 2.5%, serine 10%, alone or combined
Method: Enhancement of the thermal stability referred to herein means increasing of a residual ratio (%) of the GDH enzyme kept after giving the treatment with heat at a certain temperature for a certain time period to the composition comprising the GDH enzyme. In the present invention, the activity in the sample stored at 4° C. which is nearly completely kept is made 100%, this is compared with the activity in the GDH solution after giving the treatment with heat at a certain-temperature for a certain time period, and the residual ratio of the enzyme is calculated.
In the method for measuring the activity described in the method for measuring the GDH enzyme activity described later, an activity value (a) of GDH in the solution stored at 4° C. and an activity value (b) of GDH after giving the treatment with heat at a certain temperature for a certain time period were measured, a relative value[(b)/(a)×100] when the activity value (a) was made 100 was calculated. This relative value was made the residual ratio (%). Comparing the presence with the absence of the added compound, when the residual ratio was increased by the addition of the compound, it was determined that the thermal stability was enhanced.
In the present invention, the activity of FAD-dependent GDH is measured as follows.
The reaction-reagent is made by mixing 15.6 mL of the PIPES buffer, 0.2 mL of the DCPIP solution and 4 mL of the D-glucose solution.
as §1, with “D-glucose. Activity (U/mL)=[−(ΔODTEST−ΔODBLANK)×3.0×dilution scale]/(16.3×0.1×1.0) In the above formula, 3.0 represents a liquid amount (mL) of the reaction reagent+the enzyme solution, 16.3 represents a millimolar molecular absorbance coefficient (cm^2/μmol) in the condition for measuring this enzyme, 0.1 represents the liquid amount of the enzyme solution (mL) and 1.0 represents a light path length (cm) of the cell.” for “D-glucose.”
The study was performed in accordance with the method for measuring the FAD-GDH activity in Test Example 1 described above.
First, 50 mL of an enzyme solution obtained by dissolving the recombinant FAD-GDH (rAO-FAD-GDH)-derived from Aspergillus oryzae obtained in Example 1 at about 2 U/mL in an enzyme dilution solution (50 mM potassium phosphate buffer, pH 5.5, 0.1% Triton X-100) was prepared. Two tubes in which each stabilizing agent described in Table 1 had been added at each final concentration to 0.9 mL of this enzyme solution to make the total volume 1.0 mL were prepared.
as §2, with “stored at […] and” for “stored at 4° C. and”
The method was in accordance with Example 3 described above.
The methods were in accordance with Example 3 above.

[3] = system: recombinant FAD-GDH preparation (rAO-FAD-GDH) derived from Aspergillus oryzae; assay: Storage stability of freeze-dried (powdered) rAO-FAD-GDH with stabilizing agents (Example 8)
Method: as §1, with “D-glucose. Activity (U/mL)=[−(ΔODTEST−ΔODBLANK)×3.0×dilution scale]/(16.3×0.1×1.0) In the above formula, 3.0 represents a liquid amount (mL) of the reaction reagent+the enzyme solution, 16.3 represents a millimolar molecular absorbance coefficient (cm^2/μmol) in the condition for measuring this enzyme, 0.1 represents the liquid amount of the enzyme solution (mL) and 1.0 represents a light path length (cm) of the cell.” for “D-glucose.”
The study was performed using the recombinant FAD-GDH preparation (rAO-FAD-GDH) derived from Aspergillus oryzae obtained in Example 1 in accordance with the method for measuring the FAD-GDH activity in Test Example 1 above. The amount of the protein which occupied in the FAD-GDH enzyme solution was measured, and 1 mL of the solution in which the stabilizing agent corresponding to 60% or 30% relative to this had been dissolved therein was prepared.
Several vials in which 0.2 mL of the enzyme solution containing each stabilizing agent had been correctly dispensed were prepared. As the control, the vials in which the stabilizing agent had not been added was prepared. The prepared vials were subjected to vacuum freeze-dry (FDR) to completely evaporate the water. Then, only two samples in which the same stabilizing agent had been added were subjected to the measurement of the activity. Meanwhile, the remaining vials were treated at 25° C. at a humidity of 70% for several hours, and then stored at 37° C. for one week. Subsequently, the residual activity was measured. The residual activity ratio (%) was calculated by making the average activity immediately after FDR 100% and measuring the average activity of the samples after storing at 37° C.

[4] = stabilizer final concentration 1%, rAO-FAD-GDH about 2 U/mL, 50 mM potassium phosphate buffer pH 5.5, 0.1% Triton X-100, 4° C. sample = 100

O=C[C@H](O)[C@@H](O)[C@@H](O)[C@H](O)CO [Galactose]
Residual activity ratio (%) [1]: 17.2% | GLD activity value (U/ml) 50° C., 15 min [1]: 0.495 U/ml | thermal stabilization effect on FAD-GDH (in words) [1]: high effect | thermal stabilization effect on FAD-GDH (in words) ([2]; rAO-FAD-GDH): high effect | Residual activity ratio (%) after treatment at 50° C., 15 min [2, 4]: 60.6%

O=S(=O)([O-])[O-].[Na+].[Na+] [Sodium sulfate]
thermal stabilization effect on FAD-GDH (in words) [1]: high effect | thermal stabilization effect on FAD-GDH (in words) ([2]; rAO-FAD-GDH): high effect

N[C@@H](CO)C(=O)O [L-serine]
storage stabilization effect on the powdered enzyme (in words) ([3]; Example 8, Tables 7 and 8): enhance the stability | GDH activity (kU/vial) Immediately after pulverization ([3]; Table 7, stabilizer 60% relative to FAD-GDH protein, vacuum freeze-dry): 19.8 kU/vial | GDH activity Residual ratio (%) ([3]; Table 7, stabilizer 60%, 70% humidity, 25° C., 24 h, then 37° C. for 1 week, activity immediately after FDR = 100%): 41.3% | GDH activity (kU/vial) After 1 week at 37° C. ([3]; Table 7, stabilizer 60%, after treatment at 70% humidity, 25° C., 24 h, then 37° C. for 1 week): 8.2 kU/vial | Residual activity ratio (%) [1]: 3.0% | GLD activity value (U/ml) 50° C., 15 min [1]: 0.078 U/ml | thermal stabilization effect on FAD-GDH (in words) [1]: high effect | GDH Residual activity ratio (%) after treatment at 50° C., 15 min ([2]; Table 3): 33% | GDH Residual activity ratio (%) after treatment at 50° C., 15 min ([2]; Table 3 second column): 11.5% | thermal stabilization effect on FAD-GDH (in words) ([2]; rAO-FAD-GDH): high effect | Residual activity ratio (%) after treatment at 50° C., 15 min [2, 4]: 27.0%

O=C(O)CCC(=O)O [Succinic acid]
thermal stabilization effect on FAD-GDH (in words) [1]: high effect | thermal stabilization effect on FAD-GDH (in words) ([2]; rAO-FAD-GDH): high effect

OC[C@H]1O[C@@](CO)(O[C@H]2O[C@H](CO)[C@@H](O)[C@H](O)[C@H]2O)[C@@H](O[C@H]2O[C@H](CO)[C@@H](O)[C@H](O)[C@H]2O)[C@@H]1O [D-(+)-melezitose]
Residual activity ratio (%) [1]: 6.9% | GLD activity value (U/ml) 50° C., 15 min [1]: 0.193 U/ml | thermal stabilization effect on FAD-GDH (in words) [1]: high effect | thermal stabilization effect on FAD-GDH (in words) ([2]; rAO-FAD-GDH): high effect | Residual activity ratio (%) after treatment at 50° C., 15 min [2, 4]: 44.7%

CC[C@H](C)[C@H](N)C(=O)O (racemic) [DL-isoleucine]
Residual activity ratio (%) [1]: 1.7% | GLD activity value (U/ml) 50° C., 15 min [1]: 0.047 U/ml | Residual activity ratio (%) after treatment at 50° C., 15 min ([2]; stabilizer final concentration 0.25%, rAO-FAD-GDH, pH 5.5): 23.4%

C[C@H](N)C(=O)O [D-a-alanine]
Residual activity ratio (%) [1]: 3.2% | GLD activity value (U/ml) 50° C., 15 min [1]: 0.09 U/ml | thermal stabilization effect on FAD-GDH (in words) [1]: high effect | thermal stabilization effect on FAD-GDH (in words) ([2]; rAO-FAD-GDH): high effect | Residual activity ratio (%) after treatment at 50° C., 15 min [2, 4]: 27.1%

O=C[C@@H](O)[C@H](O)[C@H](O)CO [D-(−)-arabinose]
Residual activity ratio (%) [1]: 2.5% | GLD activity value (U/ml) 50° C., 15 min [1]: 0.069 U/ml | thermal stabilization effect on FAD-GDH (in words) [1]: high effect | thermal stabilization effect on FAD-GDH (in words) ([2]; rAO-FAD-GDH): high effect | Residual activity ratio (%) after treatment at 50° C., 15 min [2, 4]: 23.0%

N=C(N)NCCC[C@H](N)C(=O)O [L-arginine]
Residual activity ratio (%) [1]: 0.1% | GLD activity value (U/ml) 50° C., 15 min [1]: 0.001 U/ml | Residual activity ratio (%) after treatment at 50° C., 15 min [2, 4]: 1.1%
